Patent publication US12492181B2, “Gem-disubstituted piperidine melanocortin subtype-2 receptor (MC2R) antagonists and uses thereof” (Crinetics Pharmaceuticals, Inc., priority 2019, dated 2025)

Target: T1, hMC2 receptor (crude hMC2R membranes from CRE-bla-CHO-K1 cells stably expressing hMC2 receptor and hMRAP accessory protein) (Homo sapiens, UniProt Q01718)
T1 construct: crude membrane fractions
Assay: hMC2 membrane binding assay ([125I]ACTH (1-39) Tyr23, SPA)
Settings: displacement of 0.2 nM [125I]ACTH (1-39) Tyr23 from hMC2R membranes, 1.5 hours at room temperature; read-out: MC2R binding potency
Outline: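 Crude membranes from CRE-bla-CHO-K1 cells stably co-expressing hMC2R and hMRAP, premixed with WGA PVT SPA beads in pH 7.4 HEPES buffer (5 mM MgCl2, 1 mM CaCl2, 0.20% BSA, protease inhibitors). Compounds compete with [125I]ACTH(1-39) Tyr23, read by scintillation. Ki from non-linear regression.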

T1 sequence (Q01718 whole entry): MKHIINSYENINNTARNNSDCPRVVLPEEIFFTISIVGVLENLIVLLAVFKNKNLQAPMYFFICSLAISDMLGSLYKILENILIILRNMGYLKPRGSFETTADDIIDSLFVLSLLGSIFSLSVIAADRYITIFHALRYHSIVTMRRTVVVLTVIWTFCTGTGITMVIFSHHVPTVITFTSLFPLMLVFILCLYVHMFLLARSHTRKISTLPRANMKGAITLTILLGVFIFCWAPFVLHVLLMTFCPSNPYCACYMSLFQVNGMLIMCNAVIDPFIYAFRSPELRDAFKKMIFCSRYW
T1 sequence (Q8TCY5 whole entry partner): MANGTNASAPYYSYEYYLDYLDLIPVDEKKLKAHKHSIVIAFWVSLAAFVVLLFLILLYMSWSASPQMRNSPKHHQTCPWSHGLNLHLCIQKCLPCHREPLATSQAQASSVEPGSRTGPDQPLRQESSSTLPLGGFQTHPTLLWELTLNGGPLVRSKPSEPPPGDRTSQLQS

Row | Compound | Ki
1 | Cc1sccc1-c1ccc(C2(C(=O)N[C@@H]3CCN(C)C3)CCN(c3ccc(C(F)(F)F)cc3C#N)CC2)cn1 [Compound 1-112, 1-[2-cyano-4-(trifluoromethyl)phenyl]-N-[(3R)-1-methylpyrrolidin-3-yl]-4-[6-(2-methylthiophen-3-yl)pyridin-3-yl]piperidine-4-carboxamide] | < 0.01 µM
2 | CN1CC[C@@H](NC(=O)C2(c3ccc(-c4cccc5ccoc45)nc3)CCN(c3ccc(C(F)(F)F)cc3C#N)CC2)C1 [Compound 1-54, 4-[6-(1-benzofuran-7-yl)pyridin-3-yl]-1-[2-cyano-4-(trifluoromethyl)phenyl]-N-[(3R)-1-methylpyrrolidin-3-yl]piperidine-4-carboxamide] | 0.01 to 0.1 µM
3 | CN1C[C@H](F)C[C@H]1CNC(=O)C1(c2ccc(-c3cccn3C)nc2)CCN(c2ccc(C(F)(F)F)cc2C#N)CC1 [Compound 1-278, 1-[2-cyano-4-(trifluoromethyl)phenyl]-N-{[(2S,4R)-4-fluoro-1-methylpyrrolidin-2-yl]methyl}-4-[6-(1-methyl-1H-pyrrol-2-yl)pyridin-3-yl]piperidine-4-carboxamide] | < 0.01 µM
4 | CN(C)CCNC(=O)C1(c2cnc(-c3cccn3C)c(F)c2)CCN(c2ccc(C(F)(F)F)cc2F)CC1 [Compound 1-304, N-[2-(dimethylamino)ethyl]-1-[2-fluoro-4-(trifluoromethyl)phenyl]-4-[5-fluoro-6-(1-methyl-1H-pyrrol-2-yl)pyridin-3-yl]piperidine-4-carboxamide] | < 0.01 µM
5 | CCOc1ncccc1-c1ncc(C2(C(=O)N[C@@H](C)CNC)CCN(c3ccc(Cl)cc3C#N)CC2)cc1F [Compound 1-323, 1-(4-chloro-2-cyanophenyl)-4-{2′-ethoxy-3-fluoro-[2,3′-bipyridin]-5-yl}-N-[(2S)-1-(methylamino)propan-2-yl]piperidine-4-carboxamide] | < 0.01 µM
6 | COc1ccccc1-c1ncc(C2(C(=O)NCCN(C)C)CCN(c3ccc(C(F)(F)F)cc3Cl)CC2)cc1F [Compound 1-286, 1-[2-chloro-4-(trifluoromethyl)phenyl]-N-[2-(dimethylamino)ethyl]-4-[5-fluoro-6-(2-methoxyphenyl)pyridin-3-yl]piperidine-4-carboxamide] | < 0.01 µM
7 | CN(C)[C@@H]1COC[C@H]1NC(=O)C1(c2ccc(-c3cccn3C)nc2)CCN(c2ccc(C(F)(F)F)cc2C#N)CC1 [Compound 1-264, 1-[2-cyano-4-(trifluoromethyl)phenyl]-N-[(3S,4S)-4-(dimethylamino)oxolan-3-yl]-4-[6-(1-methyl-1H-pyrrol-2-yl)pyridin-3-yl]piperidine-4-carboxamide] | 0.01 to 0.1 µM
8 | COc1ccc(C)cc1-c1ccc(C2(C(=O)N[C@@H]3CCN(C)C3)CCN(c3ccc(C(F)(F)F)cc3C#N)CC2)cn1 [Compound 1-130, 1-[2-cyano-4-(trifluoromethyl)phenyl]-4-[6-(2-methoxy-5-methylphenyl)pyridin-3-yl]-N-[(3R)-1-methylpyrrolidin-3-yl]piperidine-4-carboxamide] | < 0.01 µM
9 | CCOc1ncccc1-c1ccc(C2(NC(=O)O[C@@H]3CCN(C)C3)CCN(c3ccc(C(F)(F)F)cc3C#N)CC2)cc1 [Compound 2-12, (3R)-1-methylpyrrolidin-3-yl N-{1-[2-cyano-4-(trifluoromethyl)phenyl]-4-[4-(2-ethoxypyridin-3-yl)phenyl]piperidin-4-yl}carbamate] | 0.01 to 0.1 µM
10 | CCOc1ncccc1-c1ccc(C2(C(=O)NC[C@H](N)CO)CCN(c3ccc(C(F)(F)F)cc3C#N)CC2)cn1 [Compound 1-28, N-[(2S)-2-amino-3-hydroxypropyl]-1-[2-cyano-4-(trifluoromethyl)phenyl]-4-{2′-ethoxy-[2,3′-bipyridin]-5-yl}piperidine-4-carboxamide] | < 0.01 µM
11 | CCOc1ncccc1-c1ccc(C2(C(=O)NC[C@@H](CO)N(C)C)CCN(c3ccc(C(F)(F)F)cc3C#N)CC2)cn1 [Compound 1-48, 1-[2-cyano-4-(trifluoromethyl)phenyl]-N-[(2S)-2-(dimethylamino)-3-hydroxypropyl]-4-{2′-ethoxy-[2,3′-bipyridin]-5-yl}piperidine-4-carboxamide] | < 0.01 µM
12 | COc1ccccc1-c1ccc(C2(C(=O)NCCN(C)C)CCN(c3ccc(C(F)(F)F)cc3F)CC2)cn1 [Compound 1-254, N-[2-(dimethylamino)ethyl]-1-[2-fluoro-4-(trifluoromethyl)phenyl]-4-[6-(2-methoxyphenyl)pyridin-3-yl]piperidine-4-carboxamide] | < 0.01 µM
13 | CCOc1ccccc1-c1ccc(C2(C(=O)N[C@H]3CCN(C)C3)CCN(c3ccc(Cl)cc3C#N)CC2)nn1 [Compound 1-134, 1-(4-chloro-2-cyanophenyl)-4-[6-(2-ethoxyphenyl)pyridazin-3-yl]-N-[(3S)-1-methylpyrrolidin-3-yl]piperidine-4-carboxamide] | < 0.01 µM
14 | CN1CC[C@H](NC(=O)C2(c3ccc(-c4cccn4C)nn3)CCN(c3ccc(C(F)(F)F)cc3F)CC2)C1 [Compound 1-171, 1-[2-fluoro-4-(trifluoromethyl)phenyl]-4-[6-(1-methyl-1H-pyrrol-2-yl)pyridazin-3-yl]-N-[(3S)-1-methylpyrrolidin-3-yl]piperidine-4-carboxamide] | < 0.01 µM
15 | CCOc1ncccc1-c1ncc(C2(C(=O)N[C@H]3CCN(C)C3)CCN(c3ccc(C(F)(F)F)nc3C#N)CC2)cc1F [Compound 1-110, 1-[2-cyano-6-(trifluoromethyl)pyridin-3-yl]-4-{2′-ethoxy-3-fluoro-[2,3′-bipyridin]-5-yl}-N-[(3S)-1-methylpyrrolidin-3-yl]piperidine-4-carboxamide] | < 0.01 µM
16 | CCOc1ncccc1-c1ccc(C2(C(=O)N[C@H]3CCN(C)C3)CCN(c3ccc(Cl)cc3C#N)CC2)cn1 [Compound 1-34, 1-(4-chloro-2-cyanophenyl)-4-{2′-ethoxy-[2,3′-bipyridin]-5-yl}-N-[(3S)-1-methylpyrrolidin-3-yl]piperidine-4-carboxamide] | < 0.01 µM
17 | CN1CC(NC(=O)C2(c3ccc(-c4cccn4C)nc3)CCN(c3ccc(C(F)(F)F)cc3C#N)CC2)C1 [Compound 1-219, 1-[2-cyano-4-(trifluoromethyl)phenyl]-4-[6-(1-methyl-1H-pyrrol-2-yl)pyridin-3-yl]-N-(1-methylazetidin-3-yl)piperidine-4-carboxamide] | < 0.01 µM
18 | Cc1ccccc1-c1ccc(C2(C(=O)N[C@@H]3CCN(C)C3)CCN(c3ccc(C(F)(F)F)cc3C#N)CC2)cn1 [Compound 1-66, 1-[2-cyano-4-(trifluoromethyl)phenyl]-4-[6-(2-methylphenyl)pyridin-3-yl]-N-[(3R)-1-methylpyrrolidin-3-yl]piperidine-4-carboxamide] | < 0.01 µM
19 | CCOc1ncccc1-c1ccc(C2(C(=O)NCCN)CCN(c3ccc(C(F)(F)F)cc3C#N)CC2)cn1 [Compound 1-13, N-(2-aminoethyl)-1-[2-cyano-4-(trifluoromethyl)phenyl]-4-{2′-ethoxy-[2,3′-bipyridin]-5-yl}piperidine-4-carboxamide] | < 0.01 µM
20 | CN1C[C@@H](O)[C@H](NC(=O)C2(c3ccc(-c4cccn4C)nc3)CCN(c3ccc(C(F)(F)F)cc3C#N)CC2)C1 [Compound 1-269, 1-[2-cyano-4-(trifluoromethyl)phenyl]-N-[(3R,4R)-4-hydroxy-1-methylpyrrolidin-3-yl]-4-[6-(1-methyl-1H-pyrrol-2-yl)pyridin-3-yl]piperidine-4-carboxamide] | < 0.01 µM
